Results as given in patent US20230192631A1, “Biphenyl Derivatives” (Hoffmann-La Roche Inc., priority 2020, published 2023).

Molecular target: T1, human cGAS (residues 161-522) (Homo sapiens, UniProt Q8N884)
T1 construct: Recombinantly expressed purified human cGAS (residues 161-522) was used at 25 nM; made in house
Assay: Malachite Green assay to measure cGAS activity
Format: biochemical
Details: coupled enzymatic assay, phosphate detection by Malachite Green; 25 nM cGAS, 80 μM ATP, 80 μM GTP, 100 nM ISD, 4 hour at RT
Experimental: Compounds were tested for cGAS inhibition in a coupled enzymatic assay based on Phosphate detection by Malachite Green. Final assay conditions were 20 mM TRIS pH 7.5 (Applichem), 5 mM MgCl2 (Sigma) and 0.01% BSA (Sigma) supplemented with 80 μM ATP (Sigma), 80 μM GTP (Sigma) and 100 nM Interferon Stimulating DNA (ISD) (Microsynth). Recombinantly expressed purified human cGAS (residues 161-522) was used at 25 nM.
All compounds were prepared as 10 mM stock solutions in DMSO and a 16 pt dilution series in DMSO with a dilution factor of 2.5 was prepared. 1 μL of DMSO dilution series was transferred to 32.3 μL reaction buffer, mixed by pipetting up/down, spun for 1 minute at 3000 rpm and was visually inspected for precipitation. 5 μL of 3-fold enzyme stock solution were transferred to an empty 384-well Black/Clear Flat Bottom Polystyrene NBS (Corning) rows 3-24. Rows 1-2 were filled with assay buffer. Plates were spun 10 seconds at 1000 rpm (164×g). 5 μL of compound intermediate dilution was added and mixed by pipetting up/down to rows 3-24. Rows 1-2 were filled with 3.1% DMSO assay buffer. Plates were spun 10 seconds at 1000 rpm (164×g). 5 μL 3-fold Nucleotide/DNA mix was added to all wells to start the reaction. Plates were spun 10 seconds at 1000 rpm (164×g) and incubated for 4 hour at room temperature (RT) in the dark. 5 μL 4 U/mL PPase (Sigma) were added to all wells. Plates spun 10 seconds at 1000 rpm (164×g). 10 μL BioMol green Solution (Enzo Life Sciences) was added to all wells. Plates spun 10 seconds at 1000 rpm (164×g) and incubated 30 minutes at RT in the dark. Absorbance data was collected 620 nm on an EnVision Multilable Reader (Perkin Elmer) and the following measurement settings were used: excitation filter photometric was 620 nm; excitation from the top; measurement height was 1 mm; number of flashes was 30; number of flashes integrated was 1.
All plates are checked for abnormalities and outliers in the Blank Control (no protein, row 1) and the Neutral Control (no compound, row 2) are excluded using the 3*SD rule. Data was normalized to 0 and 100% by Blank and Neutral Control and each curve was fitted and judged using the 4 parameter logistic equation to determine the IC50 for cGAS inhibition.
Table 1 provides IC50 values (μM) for cGAS inhibition obtained for particular examples of the present invention as measured by the above-described assay.

T1 sequence (Q8N884 161-522): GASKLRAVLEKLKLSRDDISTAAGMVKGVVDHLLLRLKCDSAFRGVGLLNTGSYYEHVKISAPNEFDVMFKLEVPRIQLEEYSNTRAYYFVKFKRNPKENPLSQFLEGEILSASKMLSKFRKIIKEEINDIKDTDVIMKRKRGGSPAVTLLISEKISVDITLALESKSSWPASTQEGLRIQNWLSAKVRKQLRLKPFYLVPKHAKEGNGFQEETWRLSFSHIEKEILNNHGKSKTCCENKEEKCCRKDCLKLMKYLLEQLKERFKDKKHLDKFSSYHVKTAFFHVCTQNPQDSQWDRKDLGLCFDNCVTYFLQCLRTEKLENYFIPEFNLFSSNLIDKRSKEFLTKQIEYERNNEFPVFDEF

| Structure (SMILES) | IC50 [nM] |
| --- | --- |
| Cc1ccc(-c2ccc(NC(=O)CN3CCOCC3)c(C(=O)O)c2)c(Cl)c1 [Example 4, 5-(2-Chloro-4-methylphenyl)-2-[(2-morpholin-4-ylacetyl)amino]benzoic Acid] | 320 |
| Cc1ccc(-c2ccc(NC(=O)Cc3ccccc3)c(C(=O)O)c2)c(Cl)c1 [Example 5, 5-(2-Chloro-4-methylphenyl)-2-[(2-phenylacetyl)amino]benzoic Acid] | 3070 |
| Cc1ccc(-c2ccc(NC(=O)CCN3CCOCC3)c(C(=O)O)c2)c(Cl)c1 [Example 3, 2′-Chloro-4′-methyl-4-(3-morpholinopropanamido)-[1,1′-biphenyl]-3-carboxylic Acid] | 4820 |
| Cc1ccc(-c2ccc(NC(=O)Cn3cncn3)c(C(=O)O)c2)c(Cl)c1 [Example 1, 4-(2-(1H-1,2,4-Triazol-1-yl)acetamido)-2′-chloro-4′-methyl-[1,1′-biphenyl]-3-carboxylic Acid] | 1830 |
| Cc1ccc(-c2ccc(NC(=O)Cc3cnc(C)[nH]c3=O)c(C(=O)O)c2)c(Cl)c1 [Example 2, 2′-Chloro-4′-methyl-4-(2-(2-methyl-6-oxo-1,6-dihydropyrimidin-5-yl)acetamido)-[1,1′-biphenyl]-3-carboxylic Acid] | 2090 |

More lines, now with the values ahead:

| IC50 [nM] | Structure (SMILES) |
| --- | --- |
| 4210 | Cc1ccc(-c2ccc(OCc3ccccc3)c(C(=O)O)c2)c(Cl)c1 [Example 8, 5-(2-Chloro-4-methylphenyl)-2-phenylmethoxybenzoic Acid] |
| 2800 | Cc1ccc(-c2ccc(OCCn3ccnc3)c(C(=O)O)c2)c(Cl)c1 [Example 6, 5-(2-Chloro-4-methylphenyl)-2-(2-imidazol-1-ylethoxy)benzoic Acid] |
| 2670 | Cc1ccc(-c2ccc(OCCN3CCS(=O)(=O)CC3)c(C(=O)O)c2)c(Cl)c1 [Example 7, 5-(2-Chloro-4-methylphenyl)-2-[2-(1,1-dioxo-1,4-thiazinan-4-yl)ethoxy]benzoic Acid] |
